According to patent US20160186196A1 (priority 2009, published 2016):

Key:
Assay type in all cases: cell-based, Chlamydomonas reinhardtii
[1] = test system: C. reinhardtii UTEX 2244 and transformants; assay: Rose Bengal photooxidative stress kill curves in liquid culture; details: 2 μM Rose Bengal, within the first five hours of exposure
Experimental: Exposure of C. reinhardtii to Rose Bengal was performed as follows. In order to induce apoptosis in C. reinhardtii by the mechanism of photooxidative stress, algal cells were grown on solid medium containing various concentrations of the photosensitizing dye Rose Bengal as described in Fischer et al. (Plant Sci, 168:747-759 (2005)). Duplicate plates with RB levels as high as up to 2.0 μM were initially spread with 1×10^3 cells and resulting colonies were counted after a: period of one week. UTEX 2244 was used as a control. Cell viability is reported as a percentage of surviving cells. Additionally, kill curves were conducted in liquid culture using 100-ml stirrer flasks under the same cultivation conditions mentioned previously, with the exception of aeration. Each culture was seeded with an inoculum of exponentially growing cells (1×10^6 cells ml^−1) and the cell density was measured with a Zeiss Axiovert™ 100 inverted light microscope using a hemocytometer over a one-week period. In the experimental flasks, 100x RB dissolved in isopropanol stock solution was added three days after inoculation to cultures of approximately 0.2×10^6 cells ml^−1 in order achieve a final concentration of 2.0 μM; control flasks were unaltered.

[2] = test system: bleomycin-resistant C. reinhardtii stable transformants; assay: Bleocin kill curves on solid medium, mixed population of wild-type and bleomycin-resistant cells; details: mixed population wild-type:bleomycin-resistant cells 5×10^7:1×10^3, solid medium, two weeks
Experimental: (§1) Exposure of C. reinhardtii to antibiotic selective pressure was performed as follows. In order to test the efficacy of the antibiotic bleocin (EMD Biosciences) on C. reinhardtii UTEX 2244, algal cells were grown on solid medium containing various concentrations of this selective agent—0, 0.25, 0.5, 1.0, 2.0, 4.0, 6.0, and 8.0 mg L^−1. Duplicate plates were initially spread with either 1×10^3 or 5×10^7 wild-type cells and the cultures' viability was examined over a period of two weeks. Once stable transformants were obtained, this experiment was repeated with a mixed population of wild-type and bleomycin-resistant cells (5×10^7:1×10^3) to verify the emergence of individual colonies from the surrounding lawn of algal cells.

C. reinhardtii UTEX 2244 = assay: Minimum inhibitory bleocin concentration on solid medium, wild-type cells
Experimental: as §1

| Molecule | effect on cell populations [1] | bleocin concentration in which some stable transformants were able to survive [2] [mg/L] | minimum inhibitory concentration (M.I.C.) to eradicate the entire population (C. reinhardtii UTEX 2244; high density lawn, 5×10^7 cells per plate, two-week incubation) | concentration sufficient to completely inhibit growth (absence of colony formation) (C. reinhardtii UTEX 2244; low density, 1,000 cells per plate, solid medium) [mg/L] | concentration giving widespread cell death (C. reinhardtii UTEX 2244; within only four days of exposure) |
| --- | --- | --- | --- | --- | --- |
| O=C([O-])c1c(Cl)c(Cl)c(Cl)c(Cl)c1-c1c2cc(I)c(=O)c(I)c-2oc2c(I)c([O-])c(I)cc12.[Na+].[Na+] [Rose Bengal] | all populations experienced some cell death |  |  |  |  |
| bleocin |  | ≤ 8 | at least 1 mg L^−1 | 0.25 | more than 4 mg L^−1 |
